Measured values: patent US20050187187A1, “Carboxyl-reduced derivatives of chondroitin sulfate, preparation thereof, use thereof as a medicinal product and the pharmaceutical compositions containing them” (Aventis Pharmas S.A., priority 2003, published 2005)

How the values were obtained:
bovine factor Xa [1] = target: T1, bovine factor Xa (Bos taurus, UniProt P00743); conditions: standard sample used for calibration; cited from earlier work
aggrecanase = experiment: Effect on aggrecanase: conversion of recombinant substrate Agg1mut, ELISA with BC-3 antibody; assay type: biochemical; conditions: for % Conversion: conversion of the substrate by aggrecanase in the supernatant
Procedure: Effect of the carboxyl-reduced derivatives on the aggrecanase in synovial fluids or on preparations of recombinant ADAMTS protein.
The analysis is carried out on 96-well plates. Before the analysis, serial dilutions of the assay compounds are prepared in an aqueous solution.
In each well, a fixed volume of synovial fluid or aggrecanase activity generating a known increase, between 1.0 and 1.4 absorbance units (405 nm), under the conditions of the analysis, is mixed with 3 μl of solution of compound from the respective dilution step. Dulbecco's modified Eagle's medium (DMEM) is added to each well to give a final volume of 300 μl. The plate is then incubated for 1 hour at 37° C. in a carbon dioxide atmosphere.
After the addition of 5 μl of a solution of 1 μg/μl of recombinant substrate Agglmut in DMEM to each well (substrate as described by Bartnik E. et al., EP 785274, 1997), the reagent mixture is incubated for 4 hours at 37° C. under a carbon dioxide atmosphere.
In a first step, the microplate is coated with 100 μl per well of a commercial goat anti-mouse IgG antibody for 1 hour at ambient temperature (5 μg/ml in a phosphate buffered saline solution, pH 7.4 [PBS buffer]). After washing with the PBS buffer containing 0.1% of Tween-20 (washing buffer), the wells are blocked by means of a step consisting of a one hour incubation with 100 μl per well of 5% bovine serum albumin in a PBS buffer containing 0.05% of Tween-20. Following another rinse with the washing buffer, each well is incubated with 100 μl of a solution, diluted to 1:1000, of BC-3 antibody in a PBS buffer containing 0.05% of Tween 20 and 0.5% of bovine serum albumin, at ambient temperature for one hour. This antibody recognizes the typical aggrecanase cleavage fragments (Hughes C. E. et al., Biochem. J. 305 (3), 799-804, 1995).
After another rinse of the analytical plate with the washing buffer, the complete set of mixtures originating from the preceding digestion is transferred to this plate, well by well, and incubated at ambient temperature for one hour. The plate is again washed as above. Next, 100 μl of the second antibody (anti-human IgG antibody labeled with peroxidase, 1:1000 in PBS containing 0.5% of BSA and 0.05% of Tween-20) are added to each well, with subsequent incubation at ambient temperature again for one hour. After a final rinse with the washing buffer, the color development is initiated by adding 100 μl of ABTS substrate solution (2 mg/ml, 2,2′-azinobis (3-ethylbenzothiazolinesulfonic acid) in 40 mM of sodium citrate plus 60 mM of disodium hydrogen phosphate, adjusted to a pH of 4.4 by adding acetic acid; 0.25 μl of 35% hydrogen peroxide added per ml immediately before measurement). The measurement is carried out by means of the screen mode using detection at 405 nm relative to a reference filter (620 nm) with automatic readings at 5-second intervals. The development is stopped as soon as the maximum signal (405 nm) in the absorbance range of 1.0 to 1.4 is reached.
% inhibition of conversion of the substrate by activity of the aggrecanase in the supernatant.

MMP-2 (gelatinase-A) = target: T2, MMP-2 (gelatinase-A) (Homo sapiens, UniProt P08253); experiment: MMP-2 inhibitory activity, commercial ELISA kit; assay type: biochemical; conditions: MMP-2 800 ng/ml; dilution series in PBS buffer, pH 7.5; in words
T2 construct: purchased Amersham Biosciences RPN2617
T2 sequence (P08253 110-660): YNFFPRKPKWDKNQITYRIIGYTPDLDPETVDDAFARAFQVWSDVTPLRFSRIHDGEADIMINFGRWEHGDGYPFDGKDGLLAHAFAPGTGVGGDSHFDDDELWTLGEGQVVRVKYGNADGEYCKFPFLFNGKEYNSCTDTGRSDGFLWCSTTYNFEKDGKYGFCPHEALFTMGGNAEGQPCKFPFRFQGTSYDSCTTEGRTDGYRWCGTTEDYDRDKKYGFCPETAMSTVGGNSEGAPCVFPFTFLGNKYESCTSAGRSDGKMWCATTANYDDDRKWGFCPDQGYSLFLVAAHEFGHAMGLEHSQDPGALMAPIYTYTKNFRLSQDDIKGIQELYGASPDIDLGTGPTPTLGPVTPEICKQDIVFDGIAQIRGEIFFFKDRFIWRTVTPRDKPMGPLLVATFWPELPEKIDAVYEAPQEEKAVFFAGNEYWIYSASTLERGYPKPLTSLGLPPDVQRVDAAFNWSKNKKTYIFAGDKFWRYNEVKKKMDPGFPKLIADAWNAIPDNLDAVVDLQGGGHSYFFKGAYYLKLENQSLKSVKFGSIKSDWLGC
Procedure: Effect of the Carboxyl-Reduced Persulfate Derivative (Example 1) for Human Metalloproteases MMP-2 (gelatinase-A) and MMP7
Commercial ELISA kits (such as those provided, for example, by the company Amersham Biosciences, kits RPN2617 and RPN2620) were used, respectively, to determine the inhibitory activity with respect to the MMP-2 and MMP-7 enzymes. The concentrations of the enzymes are, respectively, 800 ng/ml for MMP-2. The tests were carried out in accordance with the manufacturer's recommendations, by performing a series of dilutions of the compound to be studied in a PBS buffer, pH 7.5.

bovine factor Xa [2] = target: T1, bovine factor Xa; experiment: Inhibition of factor Xa, chromogenic substrate S-2765 with human antithrombin III; assay type: biochemical; conditions: calibrated against Enoxaparin standard
Procedure: For the calibration, a standard sample of low molecular weight heparin (Enoxaparin) was used as reference.
The serial dilutions of the assay compound are prepared in a 0.046 M Tris buffer, pH 8.4, containing 0.15 M NaCl, 0.007 M EDTA, 0.1% of Tween 80 and 0.12 IU/ml of human antithrombin III. The samples of 50 μl of the respective dilutions are incubated with 50 μl of bovine factor Xa (13.6 U/ml) at 37° C. for 80 seconds. Next, 50 μl of chromogenic substrate, 1.1 mM S-2765, are added. The absorbance at 405 nm is measured in a photometer. The activity of the deblocked factor Xa is indicated by the emission of p-nitroaniline from the substrate.
Compared to the reference heparin compound (100 U/mg), the glycosamonoglycans present a factor Xa, with much lower inhibitory activity: […]

T1 sequence (P01008 33-464 partner): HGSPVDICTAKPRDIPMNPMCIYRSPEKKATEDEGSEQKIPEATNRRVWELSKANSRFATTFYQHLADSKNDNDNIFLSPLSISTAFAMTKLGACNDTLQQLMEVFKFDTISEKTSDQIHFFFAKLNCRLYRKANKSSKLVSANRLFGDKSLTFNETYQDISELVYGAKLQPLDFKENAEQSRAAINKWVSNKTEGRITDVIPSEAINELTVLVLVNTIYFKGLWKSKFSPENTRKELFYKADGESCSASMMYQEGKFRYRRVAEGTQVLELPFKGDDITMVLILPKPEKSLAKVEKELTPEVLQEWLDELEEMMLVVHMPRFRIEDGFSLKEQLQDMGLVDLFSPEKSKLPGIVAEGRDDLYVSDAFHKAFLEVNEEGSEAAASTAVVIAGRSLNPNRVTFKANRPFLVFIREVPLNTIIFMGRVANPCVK
T1 sequence (P00743 234-492 limits assumed): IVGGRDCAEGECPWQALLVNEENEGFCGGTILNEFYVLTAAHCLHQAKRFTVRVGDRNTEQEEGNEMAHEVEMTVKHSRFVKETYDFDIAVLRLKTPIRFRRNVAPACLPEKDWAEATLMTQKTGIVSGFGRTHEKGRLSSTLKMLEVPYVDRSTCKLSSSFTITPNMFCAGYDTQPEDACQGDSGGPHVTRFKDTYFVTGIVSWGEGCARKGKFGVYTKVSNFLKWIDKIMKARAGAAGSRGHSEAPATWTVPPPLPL

## Enoxaparin [reference heparin compound]
Bovine factor Xa [1]
  factor Xa inhibitory activity of the reference standard: 100 U/mg

## Carboxyl-Reduced and Persulfated Chondroitin Sulfate Sodium Salt [Example 1]
aggrecanase; aggrecanase, estimated
  estimated IC50: ~4 ng/mL
aggrecanase; glycosaminoglycan 0.0001 μg/ml
  % Conversion: 100%
aggrecanase; glycosaminoglycan 0.0003 μg/ml
  % Conversion: 99.0%
aggrecanase; glycosaminoglycan 0.001 μg/ml
  % Conversion: 95.1%
aggrecanase; glycosaminoglycan 0.003 μg/ml
  % Conversion: 69.2%
aggrecanase; glycosaminoglycan 0.01 μg/ml
  % Conversion: 11.6%
aggrecanase; glycosaminoglycan 0.03 μg/ml
  % Conversion: 14.9%
MMP-2 (gelatinase-A)
  inhibition of MMP-2: inhibited in a concentration-dependent manner
Bovine factor Xa [2]
  factor Xa inhibitory activity: 1.2 U/mg
